In patent publication US20100160304A1, “AROMATIC SULFONE COMPOUND AS ALDOSTERONE RECEPTOR MODULATOR” (Dainippon Sumitomo Pharma Co., Ltd, priority 2005, published 2010):

Molecular target: T1, aldosterone receptor MR (Rattus norvegicus, UniProt P22199)
T1 construct: the resultant supernatant was being a soluble fraction of the kidney; from tissue; host or cells: kidney of adrenalectomized rat, 105,000 G supernatant (soluble fraction)
T1 sequence (P22199 1-981): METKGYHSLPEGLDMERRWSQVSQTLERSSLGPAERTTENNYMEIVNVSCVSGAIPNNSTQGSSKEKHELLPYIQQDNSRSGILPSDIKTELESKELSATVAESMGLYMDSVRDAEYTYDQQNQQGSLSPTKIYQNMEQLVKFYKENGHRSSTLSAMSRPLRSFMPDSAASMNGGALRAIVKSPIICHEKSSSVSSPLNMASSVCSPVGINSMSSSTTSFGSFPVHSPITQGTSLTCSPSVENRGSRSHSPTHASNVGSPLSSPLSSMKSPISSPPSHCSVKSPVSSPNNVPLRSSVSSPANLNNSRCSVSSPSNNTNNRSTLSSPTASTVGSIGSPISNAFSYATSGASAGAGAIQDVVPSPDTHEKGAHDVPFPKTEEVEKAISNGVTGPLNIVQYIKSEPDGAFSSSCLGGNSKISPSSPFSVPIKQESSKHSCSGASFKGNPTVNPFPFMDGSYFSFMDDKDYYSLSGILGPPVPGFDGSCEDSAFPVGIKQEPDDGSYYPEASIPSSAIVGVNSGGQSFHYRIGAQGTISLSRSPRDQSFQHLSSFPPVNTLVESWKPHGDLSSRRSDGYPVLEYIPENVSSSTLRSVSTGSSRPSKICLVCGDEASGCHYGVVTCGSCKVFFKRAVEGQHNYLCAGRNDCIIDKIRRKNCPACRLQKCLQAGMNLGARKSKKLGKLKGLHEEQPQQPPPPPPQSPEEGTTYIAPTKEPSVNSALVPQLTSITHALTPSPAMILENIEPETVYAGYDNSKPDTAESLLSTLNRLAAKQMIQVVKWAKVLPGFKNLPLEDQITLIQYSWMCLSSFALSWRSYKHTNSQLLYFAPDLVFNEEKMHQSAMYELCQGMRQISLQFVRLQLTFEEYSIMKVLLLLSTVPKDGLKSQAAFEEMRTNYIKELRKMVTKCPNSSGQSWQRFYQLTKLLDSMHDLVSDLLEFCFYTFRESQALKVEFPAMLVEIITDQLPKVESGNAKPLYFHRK
Assay: Aldosterone receptor binding assay ([3H]aldosterone, soluble fraction of rat kidney)
Conditions: [3H]aldosterone 2 nM, 2 μM RU-486, 4° C. about 18 hours
Experimental: Flank incision (both sides) was subjected to a rat to adrenalectomize. After suturing the rat's incised parts, the rat was again returned to a breeding cage and bred for a duration of 3 to 5 days to collect a kidney from the rat; the collected kidney was homogenized with 0.1 M Tris-HCl, 0.25M sucrose, 0.1M Na2MoO4, 2 mM DTT buffer solution (pH 7.4), the resultant solution was subjected to centrifugal separation at 105,000 G for 30 minutes, and the resultant supernatant was being a soluble fraction of the kidney.
Thereafter, the reactant solution was added with 50 μL of 5% dextran coated charcoal and mixed, and then centrifugated at 3,000 G for 5 minutes. Subsequently, 100 μL of the supernatant was collected and mixed with 3.5 mL of liquid scintillator ACS-II (Amersham) to measure a radioactivity with a liquid scintillation counter (manufactured by Packard, Tri Carb 2700TR). A non-specific binding was determined by adding 2 μM of aldosterone to the reactant solution.
Binding inhibiting rate (%)=10−[(B−N)/(B0−N)]×100
B: Binding amount of the marker ligand in the co-presence of the tested substance and marker ligand,
B0: Binding amount of the marker ligand in the absence of the tested substance, and
N: Binding amount of the marker ligand in the presence of excess aldosterone (2 μM).

Compound	IC50
Cc1ccc(S(=O)(=O)Oc2ccc3c(c2)C(C)(C)OC(=S)N3)cc1 [Example 2, 4,4-Dimethyl-2-thioxo-1,4-dihydro-2H-3,1-benzoxazin-6-yl 4-methylbenzenesulfonate]	0.32 µM
CC1(C)OC(=S)Nc2ccc(OS(=O)(=O)c3cccs3)cc21 [Example 12, 4,4-Dimethyl-2-thioxo-1,4-dihydro-2H-3,1-benzoxazin-6-yl thiophene-2-sulfonate]	0.083 µM
CC1(C)OC(=S)Nc2ccc(OS(=O)(=O)c3ccc4ccccc4c3)cc21 [Example 14, 4,4-Dimethyl-2-thioxo-1,4-dihydro-2H-3,1-benzoxazin-6-yl naphthalene-2-sulfonate]	0.47 µM
Cc1ccc(S(=O)(=O)Cc2ccc3c(c2)C(C)(C)OC(=S)N3)cc1 [Example 16, 4,4-Dimethyl-6-{[(4-methylphenyl)sulfonyl]methyl}-1,4-dihydro-2H-3,1-benzoxazin-2-thione]	0.007 µM
CC1(C)OC(=S)Nc2ccc(CS(=O)(=O)c3ccccc3)cc21 [Example 18, 4,4-Dimethyl-6-[(phenylsulfonyl)methyl]-1,4-dihydro-2H-3,1-benzoxazin-2-thione]	0.039 µM
Cc1ccc(S(=O)(=O)Nc2ccc3c(c2)C(C)(C)OC(=S)N3)cc1 [Example 22, N-(4,4-Dimethyl-2-thioxo-1,4-dihydro-2H-3,1-benzoxazin-6-yl)-4-methylbenzenesulfonamide]	0.21 µM
CC1(C)OC(=O)Nc2ccc(NS(=O)(=O)c3cccs3)cc21 [Example 23, N-(4,4-Dimethyl-2-oxo-1,4-dihydro-2H-3,1-benzoxazin-6-yl)thiophene-2-sulfonamide]	2.4 µM
CC(=O)N(c1ccc2c(c1)C(C)(C)OC(=S)N2)S(=O)(=O)c1cccs1 [Example 26, N-(4,4-Dimethyl-2-thioxo-1,4-dihydro-2H-3,1-benzoxazin-6-yl)-N-(2-thienylsulfonyl)acetamide]	0.015 µM
CC1(C)OC(=S)Nc2ccc(NS(=O)(=O)c3ccsc3)cc21 [Example 28, N-(4,4-Dimethyl-2-thioxo-1,4-dihydro-2H-3,1-benzoxazin-6-yl)thiophene-3-sulfonamide]	0.013 µM
CC1(C)OC(=S)Nc2ccc(NS(=O)(=O)c3ccccc3F)cc21 [Example 29, N-(4,4-Dimethyl-2-thioxo-1,4-dihydro-2H-3,1-benzoxazin-6-yl)-2-fluorobenzenesulfonamide]	1.6 µM
CC1(C)OC(=S)Nc2ccc(NS(=O)(=O)c3ccc(C(F)(F)F)cc3)cc21 [Example 30, N-(4,4-Dimethyl-2-thioxo-1,4-dihydro-2H-3,1-benzoxazin-6-yl)-4-(trifluoromethyl)benzenesulfonamide]	0.16 µM
Cc1ccc(S(=O)(=O)Cc2cnc3c(c2)C(C)(C)OC(=S)N3)cc1 [Example 36, 4,4-Dimethyl-6-{[(4-methylphenyl)sulfonyl]methyl}-1,4-dihydro-2H-pyrido[2,3-d][1,3]oxazin-2-thione]	1.3 µM
CC1(C)OC(=S)Nc2ncc(CS(=O)(=O)c3cccs3)cc21 [Example 37, 4,4-Dimethyl-6-[(2-thienylsulfonyl)methyl]-1,4-dihydro-2H-pyrido[2,3-d][1,3]oxazin-2-thione]	0.96 µM
CC1(C)OC(=S)Nc2ncc(CS(=O)(=O)c3cccnc3)cc21 [Example 38, 4,4-Dimethyl-6-[(pyridine-3-ylsulfonyl)methyl]-1,4-dihydro-2H-pyrido[2,3-d][1,3]oxazin-2-thione]	6.6 µM
CC1(C)OC(=S)Nc2ncc(NS(=O)(=O)c3cccs3)cc21 [Example 41, N-(4,4-Dimethyl-2-thioxo-1,4-dihydro-2H-pyrido[2,3-d][1,3]oxazin-6-yl)thiophene-2-sulfonamide]	5.5 µM
O=S(=O)(Nc1ccc2c(c1)C(c1ccccc1)OC(=S)N2)c1cccs1 (stereo not drawn) [Example 44, N-(4-Phenyl-2-thioxo-1,4-dihydro-2H-3,1-benzoxazin-6-yl)thiophene-2-sulfonamide]	0.86 µM
C=CC1OC(=S)Nc2ccc(NS(=O)(=O)c3cccs3)cc21 (stereo not drawn) [Example 46, N-(2-Thioxo-4-vinyl-1,4-dihydro-2H-3,1-benzoxazin-6-yl)thiophene-2-sulfonamide]	2.9 µM

Compound	IC50
C#CC1(C)OC(=S)Nc2ccc(NS(=O)(=O)c3cccs3)cc21 (stereo not drawn) [Example 48, N-(4-Ethynyl-4-methyl-2-thioxo-1,4-dihydro-2H-3,1-benzoxazin-6-yl)thiophene-2-sulfonamide]	0.32 µM
C=CC1(C)OC(=O)Nc2ccc(NS(=O)(=O)c3cccs3)cc21 (stereo not drawn) [Example 49, N-(4-Methyl-2-oxo-4-vinyl-1,4-dihydro-2H-3,1-benzoxazin-6-yl)thiophene-2-sulfonamide]	2.7 µM
C=CC1(C)OC(=S)Nc2ccc(NS(=O)(=O)c3cccs3)cc21 (stereo not drawn) [Example 50, N-(4-Methyl-2-thioxo-4-vinyl-1,4-dihydro-2H-3,1-benzoxazin-6-yl)thiophene-2-sulfonamide]	0.011 µM
CC1=CC(C)(C)Nc2ccc(OS(=O)(=O)c3ccc(C)cc3)cc21 [Example 51, 2,2,4-Trimethyl-1,2-dihydroquinolin-6-yl 4-methylbenzenesulfonate]	0.3 µM
CC1=CC(C)(C)Nc2ccc(OS(=O)(=O)c3ccc4ccccc4c3)cc21 [Example 52, 2,2,4-Trimethyl-1,2-dihydroquinolin-6-yl naphthalene-2-sulfonate]	0.73 µM
CC1=CC(C)(C)Nc2cc(F)c(OS(=O)(=O)c3ccc(C)cc3)cc21 [Example 54, 7-Fluoro-2,2,4-trimethyl-1,2-dihydroquinolin-6-yl 4-methylbenzenesulfonate]	0.2 µM
CC1=CC(C)(C)Nc2ccc(CS(=O)(=O)c3ccc(C)cc3)cc21 [Example 57, 2,2,4-Trimethyl-6-{[(4-methylphenyl)sulfonyl]methy}-1,2-dihydroquinoline]	0.029 µM
CC1=CC(C)(C)Nc2ccc(NS(=O)(=O)c3ccc(C)cc3)cc21 [Example 60, 4-Methyl-N-(2,2,4-trimethyl-1,2-dihydroquinolin-6-yl)benzenesulfonamide]	0.3 µM
CC1=CC(C)(C)Nc2ccc(NS(=O)(=O)c3ccc4ccccc4c3)cc21 [Example 61, N-(2,2,4-Trimethyl-1,2-dihydroquinolin-6-yl)naphthalene-2-sulfonamide]	0.52 µM
CC1=CC(C)(C)Nc2ccc(NS(=O)(=O)c3cccs3)cc21 [Example 62, N-(2,2,4-Trimethyl-1,2-dihydroquinolin-6-yl)thiophene-2-sulfonamide]	0.13 µM
CC1=CC(C)(C)Nc2ccc(NS(=O)(=O)c3ccccc3)cc21 [Example 63, N-(2,2,4-Trimethyl-1,2-dihydroquinolin-6-yl)benzenesulfonamide]	0.36 µM
CC1=CC(C)(C)Nc2ccc(NS(=O)(=O)c3ccc(Cl)s3)cc21 [Example 66, 5-Chloro-N-(2,2,4-trimethyl-1,2-dihydroquinolin-6-yl)thiophene-2-sulfonamide]	1.3 µM
CC1=CC(C)(C)Nc2ccc(NS(=O)(=O)c3ccccc3F)cc21 [Example 67, 2-Fluoro-N-(2,2,4-trimethyl-1,2-dihydroquinolin-6-yl)benzenesulfonamide]	0.6 µM
CC1=CC(C)(C)Nc2ccc(NS(=O)(=O)c3cccc(F)c3)cc21 [Example 68, 3-Fluoro-N-(2,2,4-trimethyl-1,2-dihydroquinolin-6-yl)benzenesulfonamide]	1.5 µM
CC1=CC(C)(C)Nc2ccc(NS(=O)(=O)c3ccc(F)cc3)cc21 [Example 69, 4-Fluoro-N-(2,2,4-trimethyl-1,2-dihydroquinolin-6-yl)benzenesulfonamide]	1.2 µM
CC1=CC(C)(C)Nc2ccc(NS(=O)(=O)c3ccc(C(F)(F)F)cc3)cc21 [Example 70, 4-(Trifluoromethyl)-N-(2,2,4-trimethyl-1,2-dihydroquinolin-6-yl)benzenesulfonamide]	0.3 µM
